Consider four compounds from publication PMC11375437, “Selective labelling of GBA2 in cells with fluorescent β-D-arabinofuranosyl cyclitol aziridines” (Chemical Science, 2024).

The assay deals with T1, GBA2 (Homo sapiens, UniProt Q9HCG7).
T1 sequence (Q9HCG7 1-927): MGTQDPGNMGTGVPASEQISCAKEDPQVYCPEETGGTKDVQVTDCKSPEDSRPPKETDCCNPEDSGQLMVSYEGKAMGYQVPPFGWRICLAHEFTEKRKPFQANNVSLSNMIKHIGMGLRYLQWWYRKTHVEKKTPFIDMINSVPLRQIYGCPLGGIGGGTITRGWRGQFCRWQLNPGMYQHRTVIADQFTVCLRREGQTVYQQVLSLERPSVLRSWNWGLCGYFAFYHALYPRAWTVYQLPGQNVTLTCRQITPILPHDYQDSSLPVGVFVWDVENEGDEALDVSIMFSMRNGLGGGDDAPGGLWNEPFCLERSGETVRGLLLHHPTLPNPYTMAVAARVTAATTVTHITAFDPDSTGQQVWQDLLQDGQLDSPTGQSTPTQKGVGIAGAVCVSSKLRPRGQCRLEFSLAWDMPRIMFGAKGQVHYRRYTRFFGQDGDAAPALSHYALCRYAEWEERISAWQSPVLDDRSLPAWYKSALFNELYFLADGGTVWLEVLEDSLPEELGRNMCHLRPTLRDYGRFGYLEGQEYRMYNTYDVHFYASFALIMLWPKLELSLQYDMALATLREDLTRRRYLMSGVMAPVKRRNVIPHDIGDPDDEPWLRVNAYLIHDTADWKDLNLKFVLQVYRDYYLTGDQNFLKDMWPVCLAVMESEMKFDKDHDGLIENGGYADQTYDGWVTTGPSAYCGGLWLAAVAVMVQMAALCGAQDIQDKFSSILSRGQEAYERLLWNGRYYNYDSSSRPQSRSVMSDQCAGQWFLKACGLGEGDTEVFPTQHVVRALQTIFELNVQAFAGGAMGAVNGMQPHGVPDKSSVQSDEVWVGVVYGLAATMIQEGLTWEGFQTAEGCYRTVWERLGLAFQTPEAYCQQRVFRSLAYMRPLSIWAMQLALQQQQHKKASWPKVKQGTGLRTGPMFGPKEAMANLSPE
Nature of the assay: In vitro ABP labelling of HEK293T lysates (ABPP, SDS-PAGE fluorescence scanning). It counts as biochemical. The arrangement: expressed in transfected cells; host or cells: HEK293T GBA1/GBA2 KO (CRISPR/Cas9), GBA2 overexpressed. The note with it: for Concentration at which GBA2 is selectively labelled: 30 min, pH 6.0. As for the experimental part: To this end, lysates of HEK293T cells containing all β-glucosidases (endogenous GBA1 with overexpressed GBA2 and GBA3) were treated with ABPs 3, 4, 5 or 7, followed by protein separation by SDS-PAGE and fluorescence scanning of the wet gel slabs. […] In contrast, the β-D-Araf aziridine ABPs 3 and 4 selectively labelled GBA2 at a concentration of 100 nM, while Cy5 tagged ABP 5 did so at 500 nM. The GBA2 selectivity of β-D-Araf cyclitol aziridines 3, 4 and 5 was confirmed in a mixture of a lysate of overexpressed GBA2 cells spiked with 3 ng rhGBA1 (Fig. 2C and ESI Fig. S3 ^†). In this experiment, the enzyme mixture was first incubated with β-D-Araf aziridine ABPs 3, 4, or 5 for 30 minutes, after which selective GBA1 ABP 10 [32] or 11 [30] was added to label the remaining active rhGBA1 active site. […] The pH and incubation time dependence labelling of GBA2 in HEK293T cells containing all three retaining β-glucosidases by β-D-Araf ABPs was next investigated (Fig. 2D, E and ESI Fig. S4 ^†). All ABPs selectively label GBA2 at a pH range of 4.5–7.5. Using 500 nM of ABP 4, GBA2 labelling occurred within a minute, and maximal labelling was observed after 20–30 minutes. […] Therefore, only a combined inactivation rate constant (kinact) and binding constant (KI) ratio (kinact/KI) could be measured. […] Importantly, no labelling of GBA1 or GBA3 was detected under varying pH and time conditions (ESI Fig. S4-2 ^†). […]
2.6 Visualization of ABP labelling towards β-glucosidases by activity-based protein profiling (ABPP) with SDS-PAGE
β-Glucosidases were labeled with excess of fluorescent ABPs at optimum conditions at 37 °C for 30 min (if not otherwise stated). The total sample volume was 20–40 μL with 0.5–1% DMSO concentration in appropriate pH McIlvaine buffer (150 mM). To label lysates containing all β-glucosidases (GBA1, GBA2 and GBA3), ABP 7 was used at pH 6.0 in McIlvaine buffer. To label lysate only containing GBA2 (GBA1/2 KO and GBA2 OE cell lysate), ABP (3-5, or 7) was incubated at pH 5.8 in McIlvaine buffer was used. To label rhGBA1 (Imiglucerase), ABP (10 or 11) at pH 5.2 in McIlvaine buffer supplemented with 0.1% (v/v) Triton X-100 and 0.2% (w/v) sodium taurocholate were used.
After incubation with the corresponding ABPs, proteins were denatured by boiling the samples with 5× Laemmli buffer (50% (v/v) 1 M Tris-HCl, pH 6.8, 50% (v/v) 100% glycerol, 10% (w/v) DTT, 10% (w/v) SDS, 0.01% (w/v) bromophenol blue, diluted into 1x for use) for 5 min at 98 °C, and separated by electrophoresis on 10% SDS-PAGE gels run at 90 V for 1.0-1.5 h. Wet slab-gels were imaged using the Typhoon FLA 9500 scanner (GE Healthcare, Eindhoven, The Netherlands) at λEX 473 nm and λEM ≥ 510 nm for BODIPY green fluorescence; at λEX 532 nm and λEM ≥ 575 nm for the BODIPY red fluorescence ; at λEX 635 nm and λEM ≥ 665 nm for Cy5 fluorescence. Afterwards, wet slab-gels were stained by Coomassie brilliant blue (CBB) G250 or R250 for total protein staining and scanned with a ChemiDocTM MP Imaging System (Bio-Rad, Veenendaal, The Netherlands).
2.7 Determination of kinetic parameters of ABP 4
The kinetic parameters of ABP 4 for GBA2 was determined by SDS-PAGE analysis in lysates of HEK293T GBA1/2 knock out GBA2 overexpression cells in which the relative intensity of the band on wet gel slabs (compared to labelling control) was used to calculate the inactivation parameters of GBA2. Lysates were made as previous cell lysis description. […]

Where [1] appears, read: HEK293T lysate, endogenous GBA1, overexpressed GBA2 and GBA3.

In the case of `CC1=CC(C)=[N+]2C1=C(CCCCc1cn(CCCCCCCCN3[C@@H]4[C@H](CO)[C@@H](O)[C@H](O)[C@@H]43)nn1)c1c(C)cc(C)n1[B-]2(F)F` (some centres unmarked) [ABP 3], the “Concentration at which GBA2 is selectively labelled” value under setting [1] was 100 nM. As for `COc1ccc(C2=[N+]3C(=C(CCCCc4cn(CCCCCCCCN5[C@@H]6[C@H](CO)[C@@H](O)[C@H](O)[C@@H]65)nn4)c4ccc(-c5ccc(OC)cc5)n4[B-]3(F)F)C=C2)cc1` (some centres unmarked) [ABP 4], the “Time to maximal GBA2 labelling” value (500 nM ABP, HEK293T lysate containing all three β-glucosidases) fell in the range of 20 to 30 min. For the same compound, under setting [1], the “Concentration at which GBA2 is selectively labelled” value is 100 nM. Take `CN1/C(=C/C=C/C=C/C2=[N+](CCCCCC(=O)NCc3cn(CCCCCCCCN4[C@@H]5[C@H](CO)[C@@H](O)[C@H](O)[C@@H]54)nn3)c3ccccc3C2(C)C)C(C)(C)c2ccccc21` (some centres unmarked) [ABP 5]: the “Concentration at which GBA2 is selectively labelled” value under setting [1] is listed as 500 nM. As to `CN1/C(=C/C=C/C=C/C2=[N+](CCCCCC(=O)NCc3cn(CCCCCCCCN4[C@@H]5[C@H](CO)[C@@H](O)[C@H](O)[C@@H](O)[C@@H]54)nn3)c3ccccc3C2(C)C)C(C)(C)c2ccccc21` (some centres unmarked) [ABP 7], under setting [1], the “β-Glucosidases labelled in lysate” value was “labelled all three β-glucosidases”.
